Assay results: PubChem BioAssay AID2060496 (Molecular Pharmacology Branch, DTP, NCI, 2025)

System: 276233-004-R-J1-PDC complex spheroid viability
Test: Anticancer human tumor 276233-004-R-J1-PDC patient-derived colon adenocarcinoma cell line growth inhibition [GQUAD]
Conditions: for IC50: curve of first compound; for viability, T/C: stronger effect = lower value
Excerpt: DNA G-quadruplex Stabilizer Agents in Combinations in Complex Spheroids
A high-throughput screen of multi-cell type tumor spheroids was designed to identify active combinations of DNA G-quadruplex stabilizer agents and targeted small molecules. Complex spheroids include a stromal component modeled by human endothelial cells (HUVEC) and fibroblasts modeled by human mesenchymal stem cells (MSCs). The concentration ranges selected for each drug and investigational agent were based upon clinically achievable concentrations if the clinical Cmax of the agent was known.
Compounds. The drugs and investigational agents: pidnarulex (CX-5461; NSC782164), APTO-253 (NSC789042), BRACO-19 (NSC847499), peposertib (NSC802822), ceralasertib (NSC780249), elimusertib (NSC800525), camonsertib (NSC841442), AZD-1390 (NSC803789), olaparib (NSC753686), talazoparib (NSC767125), ART-558 (NSC835418), sotorasib (NSC818433), MRTX-1133 (NSC836407), SN-38 (NSC673596), topotecan (NSC609699), etoposide (NSC141540), doxorubicin (NSC123127), gemcitabine (NSC613327), 5-fluorouracil (NSC19893), paclitaxel (NSC125973), vemurafenib (NSC761431), panobinostat (NSC761190), R-306465 (JNJ-16241199; NSC773264), adavosertib (NSC754352), TP-3654 (NSC805149), carboplatin (NSC241240), KSQ-4279 (NSC840948), and staurosporine (NSC755774) were obtained from the National Cancer Institute (NCI) Developmental Therapeutics Program Chemical Repository (34). The FDA-approved anticancer drug set is available from the NCI Developmental Therapeutics Program. […] The stock solutions were prepared in dimethyl sulfoxide (DMSO, Sigma-Aldrich, St. Louis, MO, cat. D2650) at 800-fold the tested concentration and stored at -70 degrees C prior to their use. All drugs and investigational agents were tested over a range starting from a high concentration at or near the clinical Cmax and decreasing in half-log increments. If the clinical Cmax for an agent had not been determined, the highest concentration tested was 10 microM.
2.3 Cell Culture. All cells were maintained in an incubator at 37 degrees C and 5% CO2 with 95% humidity. The PDC lines were cultured according to standard operating procedures established by the NCI PDMR. All PDCs were thawed and cultured in Matrigel-coated flasks prepared with a working solution of 1X Ham's F-12 nutrient mix, without supplementation (Invitrogen, cat. 11765054), 100 U/mL penicillin-streptomycin (Invitrogen, cat. 15140122), and 2.5% Matrigel (Corning Inc., cat. 354248) for the first three passages. The 857933-349-R-J2-PDC line was cultured in 6C/Colon 1B media, which includes advanced DMEM/F-12 (Thermo Fisher Scientific, cat. 12634028), 10 mM HEPES (Thermo Fisher Scientific, cat. 15630080), 1X GlutaMAX supplement (Thermo Fisher Scientific, cat. 35050061), 0.1 mg/mL primocin (InvivoGen, cat. ant-pm-2), 10% defined fetal bovine serum, heat inactivated (HyClone Laboratories Inc., cat. SH30070.03HI), 50% L-WRN conditioned media (ATCC, cat. CRL-3276), 1.25 mM N-Acetyl-L-cysteine (Sigma-Aldrich, cat. A9165), 10 mM nicotinamide (Sigma-Aldrich, cat. N0636), 1X B-27 supplement (Thermo Fisher Scientific, cat. 17504044), 1X N-2 supplement (Thermo Fisher Scientific, cat. 17502048), 10 microM Y-27632 dihydrochloride (Tocris Bioscience, cat. 1254), and 50 ng/mL human EGF recombinant protein (Thermo Fisher Scientific, cat. PHG0311). The 485176-168-R4-J1-PDC line was cultured in Panc media, which includes all 6C/Colon 1B media components plus 100 ng/mL human FGF-10 (Thermo Fisher Scientific, cat. 100-26), 500 nM SB-431542 (Selleckchem, cat. S1067), and gastrin (Tocris, cat. 3006).
[…]

[1] = second compound 0.0316 µM, first compound 0.0316 µM
[2] = second compound 0.0316 µM, first compound 0.1 µM
[3] = second compound 0.0316 µM, first compound 0.316 µM
[4] = second compound 0.0316 µM, first compound 1 µM
[5] = second compound 0.0316 µM, first compound 3.16 µM
[6] = second compound 0.0316 µM, first compound 10 µM
[7] = second compound 0.1 µM, first compound 0.0316 µM
[8] = second compound 0.1 µM, first compound 0.1 µM
[9] = second compound 0.1 µM, first compound 0.316 µM
[10] = second compound 0.1 µM, first compound 1 µM
[11] = second compound 0.1 µM, first compound 3.16 µM
[12] = second compound 0.1 µM, first compound 10 µM
[13] = second compound 0.316 µM, first compound 0.0316 µM
[14] = second compound 0.316 µM, first compound 0.1 µM
[15] = second compound 0.316 µM, first compound 0.316 µM
[16] = second compound 0.316 µM, first compound 1 µM
[17] = second compound 0.316 µM, first compound 3.16 µM
[18] = second compound 0.316 µM, first compound 10 µM
[19] = second compound 1 µM, first compound 0.0316 µM
[20] = second compound 1 µM, first compound 0.1 µM
[21] = second compound 1 µM, first compound 0.316 µM
[22] = second compound 1 µM, first compound 1 µM
[23] = second compound 1 µM, first compound 3.16 µM
[24] = second compound 1 µM, first compound 10 µM
[25] = second compound 3.16 µM, first compound 0.0316 µM
[26] = second compound 3.16 µM, first compound 0.1 µM
[27] = second compound 3.16 µM, first compound 0.316 µM
[28] = second compound 3.16 µM, first compound 1 µM
[29] = second compound 3.16 µM, first compound 3.16 µM
[30] = second compound 3.16 µM, first compound 10 µM
[31] = second compound 10 µM, first compound 0.0316 µM
[32] = second compound 10 µM, first compound 0.1 µM
[33] = second compound 10 µM, first compound 0.316 µM
[34] = second compound 10 µM, first compound 1 µM
[35] = second compound 10 µM, first compound 3.16 µM
[36] = second compound 10 µM, first compound 10 µM
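Further: spheroids exposed to drugs for seven days.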
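Wherever viability, T/C is given: 100% = DMSO vehicle control viability.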

O=C(c1cc(Cc2n[nH]c(=O)c3ccccc23)ccc1F)N1CCN(C(=O)C2CC2)CC1 + Cc1[nH]c2ccc(F)cc2c1-c1nc2c3cccnc3c3ncccc3c2[nH]1
IC50 (second compound 0.0316 µM): > 10000 nM | IC50 (second compound 0.1 µM): > 10000 nM | IC50 (second compound 0.316 µM): > 10000 nM | IC50 (second compound 1 µM): > 10000 nM | IC50 (second compound 3.16 µM): > 10000 nM | IC50 (second compound 10 µM): < 31.6 nM | viability, T/C [1]: 108% | viability, T/C [2]: 95.4% | viability, T/C [3]: 92.5% | viability, T/C [4]: 73.3% | viability, T/C [5]: 95.1% | viability, T/C [6]: 83.4% | viability, T/C [7]: 83.6% | viability, T/C [8]: 90.4% | viability, T/C [9]: 92% | viability, T/C [10]: 90.4% | viability, T/C [11]: 91.6% | viability, T/C [12]: 101% | viability, T/C [13]: 75.4% | viability, T/C [14]: 86.2% | viability, T/C [15]: 85% | viability, T/C [16]: 91.1% | viability, T/C [17]: 85.9% | viability, T/C [18]: 81.4% | viability, T/C [19]: 69% | viability, T/C [20]: 79.5% | viability, T/C [21]: 77.4% | viability, T/C [22]: 69.7% | viability, T/C [23]: 64.4% | viability, T/C [24]: 83.2% | viability, T/C [25]: 51.5% | viability, T/C [26]: 64.2% | viability, T/C [27]: 55.7% | viability, T/C [28]: 55% | viability, T/C [29]: 56.3% | viability, T/C [30]: 59.6% | viability, T/C [31]: 48.8% | viability, T/C [32]: 50.9% | viability, T/C [33]: 44.7% | viability, T/C [34]: 50.3% | viability, T/C [35]: 55% | viability, T/C [36]: 51%

O=C(NO)c1cnc(N2CCN(S(=O)(=O)c3ccc4ccccc4c3)CC2)nc1 + CN(C)c1ccc(Nc2c3ccc(NC(=O)CCN4CCCC4)cc3nc3cc(NC(=O)CCN4CCCC4)ccc23)cc1
IC50 (second compound 0.0316 µM): 564 nM | IC50 (second compound 0.1 µM): 382 nM | IC50 (second compound 0.316 µM): 291 nM | IC50 (second compound 1 µM): 385 nM | IC50 (second compound 3.16 µM): 207 nM | IC50 (second compound 10 µM): < 31.6 nM | viability, T/C [1]: 97.6% | viability, T/C [2]: 110% | viability, T/C [3]: 93.9% | viability, T/C [4]: 6.51% | viability, T/C [5]: 1.16% | viability, T/C [6]: 0.86% | viability, T/C [7]: 77.9% | viability, T/C [8]: 138% | viability, T/C [9]: 59.3% | viability, T/C [10]: 5.11% | viability, T/C [11]: 0.78% | viability, T/C [12]: 1.12% | viability, T/C [13]: 61% | viability, T/C [14]: 90.4% | viability, T/C [15]: 48% | viability, T/C [16]: 4.4% | viability, T/C [17]: 1.75% | viability, T/C [18]: 1.22% | viability, T/C [19]: 70% | viability, T/C [20]: 85.4% | viability, T/C [21]: 59.9% | viability, T/C [22]: 1.33% | viability, T/C [23]: 1.89% | viability, T/C [24]: 2.09% | viability, T/C [25]: 74.2% | viability, T/C [26]: 68.7% | viability, T/C [27]: 38.8% | viability, T/C [28]: 3.01% | viability, T/C [29]: 1.99% | viability, T/C [30]: 0.85% | viability, T/C [31]: 35.5% | viability, T/C [32]: 45.6% | viability, T/C [33]: 25.5% | viability, T/C [34]: 5.18% | viability, T/C [35]: 1.04% | viability, T/C [36]: 1.85%
